Source: patent US20130143804A1, “Islet Amyloid Polypeptide Toxic Oligomer is a Biomarker of Heart or Kidney Failure in Type-2 Diabetes Mellitus” (Trustees of the University of Pennsylvania, priority 2010, published 2013)
Entries after “also recorded” stand apart in the source; their conditions may differ.

Assays:
[1] = system: sarcolemma of cardiac myocytes; experiment: Atomic force microscopy of sarcolemma defect depths on cardiac myocytes; type: cell-based; conditions: cardiac myocytes incubated with IAPP oligomers
From the text: FIG. 16 illustrates distribution of sarcolemma defect depths derived from AFM data.
(§1) Oligomerization of Aβ peptides is associated with Alzheimer's disease, and Aβ and IAPP have the same molecular weight sizes and are about 40% identical at the amino acid level.

[2] = system: isolated rat cardiac myocytes; experiment: Calcein leak from isolated rat cardiac myocytes incubated with IAPP oligomers; type: cell-based; conditions: incubation for 36 hours
From the text: (§2) The level of brain natriuretic peptide (BNP), a molecular marker of hypertrophy, is elevated (by 100±30%) in hearts from pre-diabetic HIP rats vs. age-matched control littermates and further increased with diabetes development (FIG. 12B). […] In contrast, the BNP level is not altered in pre-diabetic UCD-T2DM rats and only increases after the full development of diabetes (FIG. 12B). […] This may indicate that possible pores created in the sarcolemma may be smaller in size than the calcein molecule or significant sarcolemmal damage may require a longer time of incubation.

[3] = system: sarcolemma in cardiac myocytes; experiment: Cryo-electron microscopy of cardiac myocytes incubated with IAPP oligomers; type: cell-based; conditions: 50 μM IAPP oligomers for 36 hours
Protocol: FIG. 13 illustrates EM images of cardiac myocytes. Control (A-B) vs. incubated with 50 μM IAPP oligomers for 36 hours (C-H).
as §2

rat cardiac myocytes = experiment: Ca2+ transients in isolated rat cardiac myocytes incubated with exogenous IAPP, field stimulation; type: cell-based
Protocol: FIG. 8 illustrates that exogenous IAPP oligomers increase Ca^2+ transient amplitude in isolated rat cardiac myocytes.(A) Representative experiments in a control (top panel) myocyte and a cell pre-incubated with 50 μM hIAPP (bottom panel). (B-C) Effect of rat (B) and human (C) IAPP on Ca^2+ transient amplitude. […] For each group, measurements were done on ≧6 myocytes from 3 different rats.
Rat cardiac myocytes were incubated with exogenous human (amyloidogenic) and rat (non-amyloidogenic) IAPP and measured Ca2+ transients produced by field-stimulation at various frequencies (FIG. 8A).
as §1

[4] = Oligomer formation controls, dot blot with A-11 oligomer-specific antibody; type: physicochemical; conditions: 50 μM recombinant protein incubated at room temperature for 24 hours
From the text: Dot blots with the A-11 antibody, which is specific for toxic oligomers, show the presence of toxic oligomers amyloidogenic entities within the heart in patients with overweight/obesity (OW/OB) and diabetes (DM) (FIG. 4). Non-failing (NF) hearts from lean (L), L-NF group (control), lack toxic oligomers. The percentage of strong A-11 immunoreactivity signals (darker dots) is somewhat larger in hearts from the patients with diabetes, which also correlates with the western blot analysis indicating rich accumulation of IAPP entities with molecular weights greater than ˜16 kDa in these hearts. Apparently, IAPP oligomers are equally present in both ischemic (ICM) and non-ischemic (DCM) hearts (FIG. 4). […] Dots on the upper, right side corner show positive (human IAPP) and negative (rat IAPP) controls for oligomer formation (50 μM recombinant protein incubated at room temperature for 24 hours) (FIG. 4). Before the test with A-11 antibody, all protein homogenate samples were incubated with Protein A-coated magnetic beads to extract IgG, a possible source of cross-reactivity.

[5] = system: isolated rat cardiac myocytes; conditions: external human IAPP; Bell et al. 1995; cited from earlier work
[6] = 50 μM IAPP, all stimulation frequencies

## IAPP oligomers: exogenous oligomers that human IAPP rapidly forms at 50 μM (KCNTATCATQLANFLVHSSNNFGAILSSTNVGSNTY)
[1]
  sarcolemma thinning (density of thin patches, AFM): induce sarcolemma thinning; also recorded: Density of thin sarcolemma patches is higher
[2]
  calcein leak from the cytoplasm: does not reveal release of calcein; also recorded: does not induce significant calcein leak
[3]
  structural modification of the sarcolemma (EM): significant structural modification of the sarcolemma

## human IAPP: human islet amyloid polypeptide, amyloidogenic, SEQ ID NO: 1 KCNTATCATQRLANFLVHSSNNFGAILSSTNVGSNTY (KCNTATCATQLANFLVHSSNNFGAILSSTNVGSNTY; listed as Homo sapiens)
Rat cardiac myocytes; 5 μM IAPP, monomeric form
  Ca2+ transient amplitude: modest increase
Rat cardiac myocytes; [6]
  Ca2+ transient amplitude: marked rise
Rat cardiac myocytes; 50 μM IAPP, all stimulation frequencies, listed as Human IAPP
  Ca2+ transient amplitude: significantly increased
[4]
  oligomer formation (A-11 dot blot control): positive
[5]
  hypertrophy induction: induces hyperthrophy

## rat IAPP: rat islet amyloid polypeptide, non-amyloidogenic, SEQ ID NO: 2 KCNTATCATQRLANFLVRSSNNLGPVLPPTNVGSNTY (KCNTATCATQLANFLVRSSNNLGPVLPPTNVGSNTY; listed as Mus musculus)
Rat cardiac myocytes; 5 μM IAPP, monomeric form
  Ca2+ transient amplitude: modest increase
Rat cardiac myocytes; [6]
  Ca2+ transient amplitude: modest, not significant effect; also recorded: no further effect
[4]
  oligomer formation (A-11 dot blot control): negative
